Experimental data published in patent US20090227546A1, “PHARMACEUTICAL COMPOSITION OF DROSPIRENONE AND ETHYNYLESTRADIOL” (Laboratories Liconse, S.A., priority 2004, published 2009).

What was measured:
[1] = Dissolution of drospirenone in methanol as granulation solvent; type: physicochemical
Description: About 16.00 ml of the dichloromethane/methanol solution at about a 6:1 ratio were placed in a stainless steel stirring apparatus. Next, about 0.0306 g of ethynylestradiol, non-micronized with a particle size no less than about 50 μm (addition of an excess of about 2% was foreseen to make up for losses during the process), were added under constant stirring. The mixture was shaken/stirred until completely dissolved. About 3.0600 g of drospirenone, non-micronized with a particle size no less than about 50 μm (addition of an excess of about 2% was foreseen to make up for losses during the process), were added under constant stirring until completely dissolved. Once dissolved, about 3.4000 g of polyvinylpyrrolidone K-30 were added with stirring until completely dissolved.
Only about 16 ml methanol was used in this example, which compares to substantially the same volume as the about 16 ml methylene chloride/methanol (about 6:1) used in example 1. […] Recall that in example 1 drospirenone was completely dissolved. Again, the process was conducted in accordance with example 1, including the step of “Granulation—Drying” where a planetary-type mixer was used and the mixture kneaded. The name of the final batch granulated: LPDIMet-16 ml.
In an extra experiment related to this Example 2, in the step “Dissolution of the active ingredients and binder” methanol was added until complete dissolution. […]

[2] = Dissolution profile of crystalline drospirenone tablets in acidic medium (USP 27 apparatus 2); type: physicochemical; conditions: HCl 0.1 N, regardless of the size of the particle, FIG. 16
Description: The dissolution profiles were obtained from tablets containing drospirenone in a crystalline state with different sized particles, using a dissolution apparatus designated in the U.S. Pharmacopoeia, Edition 27, apparatus 2, at 50 rpm and 900 ml of lauryl sulfate 0.07% in a strongly acidic medium, HCl 0.1 N, thermostatized at 37° C.

C[C@]12CCC(=O)C=C1[C@@H]1C[C@@H]1[C@H]1[C@@H]3[C@@H]4C[C@@H]4[C@@]4(CCC(=O)O4)[C@@]3(C)CC[C@@H]12 [drospirenone, 6β,7β,15β,16β-dimethylene-3-oxo-17α-pregn-4-ene-21,17-carbolactone]
amount of methanol required for complete dissolution ([1]; about 3.06 g drospirenone and about 0.0306 g ethynylestradiol): about 154.3 ml | dissolution of drospirenone in about 16 ml methanol ([1]; about 3.06 g drospirenone, methanol only): not enough for the total dissolution | stability of drospirenone in an acidic medium [2]: instability
